Laboratory results from patent publication US10118916B2, “Modulators of cystic fibrosis transmembrane conductance regulator protein” (AbbVie S.à.r.l., priority 2016, dated 2018).

Columns and labels:
[1] = target: T1, F508delCFTR (Homo sapiens, UniProt P13569, DEL508-508); assay: Cell Surface Expression-Horse Radish Peroxidase (CSE-HRP) assay; type: cell-based; settings: CFBE41o-F508delCFTR-HRP cells; for EC50: F508delCFTR cell surface expression, luminescence, 18-24 hours at 33° C., highest concentration 20 μM; for Maximum % activity: maximum at any tested concentration, normalized to on-plate positive control (3 μM)
T1 construct: expressed in transfected cells; host or cells: CFBE41o- (human lung derived epithelial cell line), doxycycline-inducible
T1 sequence (P13569 with tags, fused parts or gaps DEL508-508): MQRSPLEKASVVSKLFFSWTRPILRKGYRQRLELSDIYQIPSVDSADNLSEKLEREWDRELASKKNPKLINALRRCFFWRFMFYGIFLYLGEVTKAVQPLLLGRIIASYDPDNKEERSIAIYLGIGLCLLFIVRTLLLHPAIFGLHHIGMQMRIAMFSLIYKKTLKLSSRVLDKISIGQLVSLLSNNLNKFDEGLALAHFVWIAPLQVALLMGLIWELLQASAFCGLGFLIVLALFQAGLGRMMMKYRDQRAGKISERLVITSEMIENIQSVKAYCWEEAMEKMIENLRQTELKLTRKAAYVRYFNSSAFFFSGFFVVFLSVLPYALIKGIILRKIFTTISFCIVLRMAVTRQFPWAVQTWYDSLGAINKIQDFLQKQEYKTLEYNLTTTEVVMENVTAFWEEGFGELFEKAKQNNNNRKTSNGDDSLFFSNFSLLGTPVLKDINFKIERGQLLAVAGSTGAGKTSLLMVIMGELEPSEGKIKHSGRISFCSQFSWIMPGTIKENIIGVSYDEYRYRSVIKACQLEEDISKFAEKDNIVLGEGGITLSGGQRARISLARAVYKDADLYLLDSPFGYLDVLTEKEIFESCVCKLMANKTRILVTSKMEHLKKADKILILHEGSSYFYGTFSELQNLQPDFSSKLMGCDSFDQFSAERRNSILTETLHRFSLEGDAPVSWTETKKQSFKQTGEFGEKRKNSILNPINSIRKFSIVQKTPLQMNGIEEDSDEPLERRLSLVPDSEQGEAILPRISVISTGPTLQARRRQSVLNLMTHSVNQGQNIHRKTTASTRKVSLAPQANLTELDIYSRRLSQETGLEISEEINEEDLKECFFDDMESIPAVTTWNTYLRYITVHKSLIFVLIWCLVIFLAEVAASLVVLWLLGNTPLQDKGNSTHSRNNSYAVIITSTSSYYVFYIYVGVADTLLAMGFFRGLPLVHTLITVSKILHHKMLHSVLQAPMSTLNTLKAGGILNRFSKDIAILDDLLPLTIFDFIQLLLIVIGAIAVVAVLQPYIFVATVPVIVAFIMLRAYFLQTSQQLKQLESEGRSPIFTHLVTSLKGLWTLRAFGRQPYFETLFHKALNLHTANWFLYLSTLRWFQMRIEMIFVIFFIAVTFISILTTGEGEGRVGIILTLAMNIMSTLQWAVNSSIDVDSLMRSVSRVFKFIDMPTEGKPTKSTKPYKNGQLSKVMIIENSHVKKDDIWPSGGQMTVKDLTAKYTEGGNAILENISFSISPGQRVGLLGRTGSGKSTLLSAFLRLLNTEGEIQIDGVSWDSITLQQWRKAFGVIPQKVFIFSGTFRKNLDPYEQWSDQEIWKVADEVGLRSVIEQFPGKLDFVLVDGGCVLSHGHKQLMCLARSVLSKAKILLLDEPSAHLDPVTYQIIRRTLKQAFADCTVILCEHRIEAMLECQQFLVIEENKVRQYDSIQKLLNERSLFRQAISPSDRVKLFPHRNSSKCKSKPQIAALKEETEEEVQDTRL
How it was run: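 CFBE41o- cells expressing doxycycline-induced (0.5 μg/mL, 72 h at 37 °C) F508delCFTR with HRP in the fourth extracellular loop; compounds 8 points, 3-fold from 20 μM, 18-24 h at 33 °C. Surface HRP measured by luminol luminescence, normalised to DMSO and 3 μM reference corrector; EC50 from variable-slope sigmoidal fit of triplicate plates.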

[2] = target: T2, F508del/F508del CFTR (Homo sapiens, UniProt P13569, DEL508-508); assay: Transepithelial Clamp Circuit (TECC-24) conductance assay on primary human bronchial epithelial cells (hBE-TECC); type: cell-based; settings: for EC50: equivalent short circuit current, 18-24 hours at 37° C., with control potentiator; for Maximum % activity: relative to positive control (3 μM) coupled with control potentiator
T2 construct: cells isolated from CF patients with the homozygous mutation; endogenous in cells; host or cells: primary human bronchial epithelial (hBE) cells from F508del/F508del CF patients
T2 sequence (P13569 with tags, fused parts or gaps DEL508-508): as above
From the text: Transepithelial Clamp Circuit on Human Bronchial Epithelial Cells Conductance Assay:
A cell based assay using the primary human bronchial epithelial cells (hBE) was used as a secondary assay to test novel F508delCFTR correctors for their activity on primary hBE cells with F508del/F508del CFTR mutation. The assay used a TECC-24 (Transepithelial Clamp Circuit for 24 wells) instrument that measures the functionality of the mutated channel by measuring the equivalent short circuit current (Ieq) generated by the polarized epithelial cells. The instrument works by measuring the transepithelial potential difference (Vt) and transepithelial resistance (Rt) in an open circuit format, and the Ieq is calculated by using Ohms law (Ieq=Vt/Rt). The assay was run in a 24-well format and all 24-wells were measured at the same time point giving a higher throughput for this assay.
Primary human bronchial epithelial (hBE) cells from F508del/F508delCFTR patients were expanded from 1×10^6 to 250×10^6 cells (Neuberger T, Burton B, Clark H and VanGoor F; Cystic Fibrosis, Methods in Mole Biol 741; eds. Amaral M D and Kunzelmann K, 2011). For this purpose, cells isolated from CF patients with the homozygous mutation were seeded onto 24 well Corning (Cat #3378) filter plates that were coated with 3T3 conditioned media and grown at an air-liquid interface for 35 days using an Ultroser® G supplemented differentiation media. Apical surface mucus was removed 72 hours before the experiment using 3 mM dithiothreitol (DTT) in phosphate buffered saline (PBS). The apical surface was washed again 24 hours before the experiment using PBS. The cells were incubated with the desired dose response of the corrector compounds 18-24 hours at 37° C., 5% CO2. The corrector compounds are only added on the basolateral side of the epithelial cells.
On the day of measuring the corrector activity on the TECC, the cells were switched into a bicarbonate and serum free F-12 Coon's medium and allowed to equilibrate for 30 minutes in a CO2 free incubator. At the time of measurement, the apical and basolateral sides of the filter were bathed with the F-12 Coon's modification media (with 20 mM 4-(2-hydroxyethyl)-1-piperazineethanesulfonic acid (HEPES), pH 7.4 (using 1 M tris(hydroxymethyl)aminomethane (Tris)), and the measurements were made at 36.5° C. Transepithelial voltage (Vt) and transepithelial resistance (Rt) were measured using a 24 channel transepithelial current clamp (TECC-24). Current responses to the sequential addition of benzamil (apical 6 μM addition; for inhibiting epithelial ENaC channel), forskolin (apical and basolateral 10 μM addition; for activating the CFTR channel), control potentiator (N-(3-carbamoyl-5,5,7,7-tetramethyl-4,7-dihydro-5H-thieno[2,3-c]pyran-2-yl)-1H-pyrazole-5-carboxamide; apical and basolateral 1 μM addition; for potentiating the CFTR channel) and bumetanide (basolateral 20 μM addition; for inhibiting the Na:2Cl:K co-transporter, an indirect measure of inhibiting the Cl— secretion driven by CFTR channel) were measured.
All plates contained negative controls (dimethyl sulfoxide, DMSO) which coupled with the control potentiator (N-(3-carbamoyl-5,5,7,7-tetramethyl-4,7-dihydro-5H-thieno[2,3-c]pyran-2-yl)-1H-pyrazole-5-carboxamide) sets the null response and positive controls (3 μM of 3-[(2R,4R)-4-({[1-(2,2-difluoro-1,3-benzodioxol-5-yl)cyclopropyl]carbonyl}amino)-7-methoxy-3,4-dihydro-2H-chromen-2-yl]benzoic acid) coupled with the control potentiator sets the 100% response to measure the correction of the mutated CFTR channel. The maximum percent activity is reported relative to the positive control value.
The % activity measured at each of the 6 test concentrations of the test compound was normalized to the on-plate positive control using the following formula: % activity=[(test compound response−DMSO response)/(positive control response−DMSO response)]*100 […]

| SMILES | EC50 [1] [nM] | Maximum % activity [1] [%] | EC50 [2] [nM] | Maximum % activity [2] [%] |
| --- | --- | --- | --- | --- |
| O=C(N[C@@H]1C[C@H]([C@H]2CC[C@@H](C(=O)O)CC2)Oc2cc(OC(F)F)ccc21)C1(c2ccc3c(c2)OC(F)(F)O3)CC1 [Example 15A, cis-4-[(2R,4R)-4-{[1-(2,2-difluoro-2H-1,3-benzodioxol-5-yl)cyclopropane-1-carbonyl]amino}-7-(difluoromethoxy)-3,4-dihydro-2H-1-benzopyran-2-yl]cyclohexane-1-carboxylic acid] | 530 | 94.7 | 573 | 92.0 |
| O=C(N[C@@H]1C[C@H]([C@H]2CC[C@H](C(=O)O)CC2)Oc2cc(OC(F)F)ccc21)C1(c2ccc3c(c2)OC(F)(F)O3)CC1 [Example 15B, trans-4-[(2R,4R)-4-{[1-(2,2-difluoro-2H-1,3-benzodioxol-5-yl)cyclopropane-1-carbonyl]amino}-7-(difluoromethoxy)-3,4-dihydro-2H-1-benzopyran-2-yl]cyclohexane-1-carboxylic acid] | 110 | 125.5 | 30 | 109.6 |
